In patent US11332459B2 (TEIJIN PHARMA LIMITED, priority 2017, dated 2022):
Where a name gives a salt, the structure may show the parent alone.

The compounds below were run against T1, human TRPC6 (Homo sapiens, UniProt Q9Y210) (assay: TRPC6 calcium flux assay (FLIPR, OAG-stimulated calcium influx)). Settings: HEK293 cells stably transfected with human TRPC6, read-out: hTRPC6 Potency.
T1 construct: expressed in transfected cells
T1 sequence (Q9Y210 1-931): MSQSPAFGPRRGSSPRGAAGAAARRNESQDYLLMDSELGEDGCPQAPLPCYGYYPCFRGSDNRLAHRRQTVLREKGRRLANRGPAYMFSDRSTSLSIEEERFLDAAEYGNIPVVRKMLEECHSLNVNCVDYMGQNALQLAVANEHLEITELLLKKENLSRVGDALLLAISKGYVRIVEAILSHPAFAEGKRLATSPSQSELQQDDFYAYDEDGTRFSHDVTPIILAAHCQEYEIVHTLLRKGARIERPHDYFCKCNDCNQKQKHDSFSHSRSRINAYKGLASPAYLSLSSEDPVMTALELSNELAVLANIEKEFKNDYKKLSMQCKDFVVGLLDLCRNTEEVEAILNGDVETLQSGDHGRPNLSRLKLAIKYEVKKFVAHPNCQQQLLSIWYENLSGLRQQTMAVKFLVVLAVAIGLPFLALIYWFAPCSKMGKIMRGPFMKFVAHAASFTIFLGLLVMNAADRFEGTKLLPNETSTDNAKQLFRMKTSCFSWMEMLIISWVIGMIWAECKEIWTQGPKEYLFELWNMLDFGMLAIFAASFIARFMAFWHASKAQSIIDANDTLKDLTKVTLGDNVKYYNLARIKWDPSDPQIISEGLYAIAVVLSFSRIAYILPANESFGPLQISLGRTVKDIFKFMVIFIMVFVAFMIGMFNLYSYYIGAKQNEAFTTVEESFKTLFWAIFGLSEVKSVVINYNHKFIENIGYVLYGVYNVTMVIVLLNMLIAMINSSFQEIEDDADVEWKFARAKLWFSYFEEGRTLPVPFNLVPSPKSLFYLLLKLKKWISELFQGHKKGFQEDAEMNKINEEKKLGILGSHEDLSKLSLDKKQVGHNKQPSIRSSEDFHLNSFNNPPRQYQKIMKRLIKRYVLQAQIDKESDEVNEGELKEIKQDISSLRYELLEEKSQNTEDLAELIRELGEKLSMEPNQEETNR
Format: cell-based
Procedure, shortened: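 IC50 derived by plotting background-corrected peak fluorescence (180 s window, normalized to OAG-triggered signal vs buffer) against dose. Stable human TRPC6 HEK293 line was dye-loaded, exposed to compound 25 min, then challenged with 50 uM final OAG in 2 mM Ca2+ HEPES buffer pH 7.2, 0.5% DMSO.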

SMILES	IC50
N[C@@H]1CCCN(c2nc3ccccc3n2Cc2ccc(Cl)cc2)C1 [Example 377, (R)-1-(1-(4-chlorobenzyl)-1H-benzo[d]imidazol-2-yl)piperidin-3-amine]	1650 nM
N#Cc1ccc(Cn2c(N3CC[C@@H](F)[C@H](N)C3)nc3cc(OC(F)F)ccc32)nc1 [Example 119, 6-((2-((3R,4R)-3-amino-4-fluoro-1-piperidinyl)-5-(difluoromethoxy)-1H-benzimidazol-1-yl)methyl)-3-pyridinecarbonitrile]	1.94 nM
C[C@H](c1ccc(C#N)cn1)n1c(N2CC[C@@H]3OCCN[C@H]3C2)nc2cc(F)cc(F)c21 [Example 272, 6-((1R)-1-(5,7-difluoro-2-((4aS,8aS)-hexahydro-2H-pyrido[4,3-b][1,4]oxazin-6(5H)-yl)-1H-benzimidazol-1-yl)ethyl)-3-pyridinecarbonitrile]	2.81 nM
N[C@@H]1CN(c2nc3cc(F)c(F)cc3n2CC(=O)N2CC3(CCOCC3)C2)CC[C@H]1F [Example 431, 2-(2-((3R,4R)-3-amino-4-fluoropiperidin-1-yl)-5,6-difluoro-1H-benzo[d]imidazol-1-yl)-1-(7-oxa-2-azaspiro[3.5]nonan-2-yl)ethanone]	> 3750 nM
CS(=O)(=O)c1ccc(Cn2c(N3CC[C@@H](F)[C@H](N)C3)nc3c(F)cc(F)cc32)nc1 [Example 556, (3R,4R)-1-(4,6-difluoro-1-((5-(methylsulfonyl)pyridin-2-yl)methyl)-1H-benzo[d]imidazol-2-yl)-4-fluoropiperidin-3-amine]	11.9 nM
CC1(C#N)CCN(C(=O)Cn2c(N3CC[C@@H](F)[C@H](N)C3)nc3cc(F)c(F)cc32)CC1 [Example 629, 1-(2-(2-((3R,4R)-3-amino-4-fluoropiperidin-1-yl)-5,6-difluoro-1H-benzo[d]imidazol-1-yl)acetyl)-4-methylpiperidine-4-carbonitrile]	158 nM
N[C@@H]1CN(c2nc3ccc(C(F)(F)F)cc3n2CC(=O)N2CCOCC2)CC[C@H]1F [Example 459, 2-(2-((3R,4R)-3-amino-4-fluoropiperidin-1-yl)-6-(trifluoromethyl)-1H-benzo[d]imidazol-1-yl)-1-morpholinoethan-1-one]	16.4 nM
CC(C)(C)NC(=O)c1ccc(Cn2c(N3CC[C@@H](F)[C@H](N)C3)nc3ncc(Cl)cc32)nc1 [Example 94, 6-((2-((3R,4R)-3-amino-4-fluoropiperidin-1-yl)-6-chloro-1H-imidazo[4,5-b]pyridin-1-yl)methyl)-N-(tert-butyl)nicotinamide]	615 nM
CN(C(=O)Cn1c(N2CC[C@@H](F)[C@H](N)C2)nc2cc(F)c(F)cc21)C1CCS(=O)(=O)C1 (mixture of isomers) [Example 525, 2-(2-((3R,4R)-3-amino-4-fluoropiperidin-1-yl)-5,6-difluoro-1H-benzo[d]imidazol-1-yl)-N-(1,1-dioxidotetrahydrothiophen-3-yl)-N-methylacetamide]	1780 nM
N#Cc1ccc(Cn2c(N3CC[C@H](F)[C@H](N)C3)nc3cc(C#N)ccc32)nc1 [Example 69, 2-((3R,4S)-3-amino-4-fluoropiperidin-1-yl)-1-((5-cyanopyridin-2-yl)methyl)-1H-benzo[d]imidazole-5-carbonitrile]	14.7 nM
CCOc1ccc2nc(N3CC[C@@H](F)C(N)C3)n(Cc3ccc(C#N)cc3)c2c1 (stereo in doubt) [Example 414, 4-((2-((3R,4R)-3-amino-4-fluoro-1-piperidinyl)-6-ethoxy-1H-benzimidazol-1-yl)methyl)benzonitrile]	1.5 nM
N#Cc1ccc(Cn2c(N3CCC[C@@](N)(C(N)=O)C3)nc3ccccc32)nc1 [Example 102, (S)-3-amino-1-(1-((5-cyanopyridin-2-yl)methyl)-1H-benzo[d]imidazol-2-yl)piperidine-3-carboxamide]	> 3750 nM
CN[C@@H]1CN(c2nc3ccc(C#N)cc3n2Cc2ncc(Cl)cn2)CC[C@H]1F [Example 283, 1-((5-chloro-2-pyrimidinyl)methyl)-2-((3R,4R)-4-fluoro-3-(methylamino)-1-piperidinyl)-1H-benzimidazole-6-carbonitrile]	23.8 nM
CN(CC(F)(F)F)C(=O)Cn1c(N2CC[C@@H](F)[C@H](N)C2)nc2c(F)cc(F)cc21 [Example 558, 2-(2-((3R,4R)-3-amino-4-fluoropiperidin-1-yl)-4,6-difluoro-1H-benzo[d]imidazol-1-yl)-N-methyl-N-(2,2,2-trifluoroethyl)acetamide]	16.1 nM
COc1ccnc(Cn2c(N3CC[C@@H](F)[C@H](N)C3)nc3cc(F)ccc32)c1 [Example 524, (3R,4R)-4-fluoro-1-(5-fluoro-1-((4-methoxypyridin-2-yl)methyl)-1H-benzo[d]imidazol-2-yl)piperidin-3-amine]	1490 nM
CN[C@@H]1CN(c2nc3c(F)cc(F)cc3n2[C@H](C)c2ccc(C#N)cn2)CC[C@H]1F (single isomer, unassigned) [Example 438]	476 nM
COc1ccc2nc(N3CC[C@@H](F)[C@H](N)C3)n(CC(=O)N(C)C)c2c1 [Example 448, 2-(2-((3R,4R)-3-amino-4-fluoropiperidin-1-yl)-6-methoxy-1H-benzo[d]imidazol-1-yl)-N,N-dimethylacetamide]	123 nM
COc1cc(F)cc2nc(N3CC[C@@H](F)[C@H](N)C3)n(Cc3ccc(C#N)cn3)c12 [Example 476]	763 nM
N#Cc1ccc(Cn2c(N3CCC4CCN[C@H]4C3)nc3ccccc32)nc1 (stereo partly drawn) [Example 26, 6-((2-((3aS,7aR)-hexahydro-1H-pyrrolo[2,3-c]pyridin-6(2H)-yl)-1H-benzo[d]imidazol-1-yl)methyl)nicotinointrile]	161 nM
C[C@H](c1cc(Cl)ccc1Cl)n1c(N2CC[C@@H](F)[C@H](N)C2)nc2cc(F)c(F)cc21 [Example 328, (3R,4R)-1-(1-((1R)-1-(2,5-dichlorophenyl)ethyl)-5,6-difluoro-1H-benzimidazol-2-yl)-4-fluoro-3-piperidinamine]	> 3750 nM
CN(C(=O)Cn1c(N2CC[C@@H](F)[C@H](N)C2)nc2cc(F)c(F)cc21)C1CCS(=O)(=O)CC1 [Example 651, 2-(2-((3R,4R)-3-amino-4-fluoropiperidin-1-yl)-5,6-difluoro-1H-benzo[d]imidazol-1-yl)-N-(1,1-dioxidotetrahydro-2H-thiopyran-4-yl)-N-methylacetamide]	> 3750 nM
N#Cc1ccc2nc(N3CC[C@@H](F)[C@H](N)C3)n(Cc3ccc(C(F)(F)F)nc3)c2c1 [Example 243, 2-((3R,4R)-3-amino-4-fluoropiperidin-1-yl)-1-((6-(trifluoromethyl)pyridin-3-yl)methyl)-1H-benzo[d]imidazole-6-carbonitrile hydrochloride]	1970 nM
N#Cc1ccc(Cn2c(N3CCC[C@@]4(CCCN4)C3)nc3ccccc32)nc1 [Example 136, 6-((2-((5S)-1,7-diazaspiro[4.5]decan-7-yl)-1H-benzimidazol-1-yl)methyl)-3-pyridinecarbonitrile]	13.9 nM
CN[C@H]1CCCN(c2nc3ccccc3n2Cc2ccc(Cl)cn2)C1 [Example 254, (3S)-1-(1-((5-chloro-2-pyridinyl)methyl)-1H-benzimidazol-2-yl)-N-methyl-3-piperidinamine]	73.9 nM
C[C@H](c1ccc(Cl)cc1Cl)n1c(N2CC[C@@H](F)[C@H](N)C2)nc2cc(F)c(F)cc21 [Example 322, (3R,4R)-1-(1-((1R)-1-(2,4-dichlorophenyl)ethyl)-5,6-difluoro-1H-benzimidazol-2-yl)-4-fluoro-3-piperidinamine]	1450 nM
CN[C@@H]1CN(c2nc3c(F)cc(F)cc3n2[C@@H](C)c2ccc(C#N)cn2)CC[C@H]1F (single isomer, unassigned) [Example 439]	36.7 nM
N[C@@H]1CN(c2nc3ccc(F)cc3n2CC(=O)N(CC(F)(F)F)[C@@H]2CCOC2)CC[C@H]1F [Example 672]	1660 nM
CN[C@@H]1CN(c2nc3ccc(F)cc3n2Cc2ccc(C#N)cn2)CCC1(F)F [Example 432, (R)-6-((2-(4,4-difluoro-3-(methylamino)piperidin-1-yl)-6-fluoro-1H-benzo[d]imidazol-1-yl)methyl)nicotinonitrile]	7.77 nM
N#Cc1ccc(Cn2c(N3CC[C@@H](O)[C@H](N)C3)nc3ccc(F)cc32)nc1 [Example 207, 6-((2-((3R,4R)-3-amino-4-hydroxypiperidin-1-yl)-6-fluoro-1H-benzo[d]imidazol-1-yl)methyl)nicotinonitrile]	49.6 nM
